Paper PMC10089289, “Well-Defined Heparin Mimetics Can Inhibit Binding of the Trimeric Spike of SARS-CoV-2 in a Length-Dependent Manner” (JACS Au, 2023)

Key:
[1] = molecular target: trimeric spike glycoprotein of SARS-CoV-2; assay: SPR competition assay: binding of SARS-CoV-2 spike trimer to heparin-immobilized sensor chip; settings: 100 nM spike trimer, 25 °C, read-out: IC50, inhibition of binding of spike trimer to immobilized heparin (50% reduction in RUs)
[2] = molecular target: T1, antithrombin-III (AT-III) (Homo sapiens, UniProt P01008); assay: SPR competition assay: binding of AT-III to heparin chip; settings: 100 nM AT-III, 100 to 0.001 μg/mL
T1 construct: purchased Haematologic technologies
T1 sequence (P01008 33-464): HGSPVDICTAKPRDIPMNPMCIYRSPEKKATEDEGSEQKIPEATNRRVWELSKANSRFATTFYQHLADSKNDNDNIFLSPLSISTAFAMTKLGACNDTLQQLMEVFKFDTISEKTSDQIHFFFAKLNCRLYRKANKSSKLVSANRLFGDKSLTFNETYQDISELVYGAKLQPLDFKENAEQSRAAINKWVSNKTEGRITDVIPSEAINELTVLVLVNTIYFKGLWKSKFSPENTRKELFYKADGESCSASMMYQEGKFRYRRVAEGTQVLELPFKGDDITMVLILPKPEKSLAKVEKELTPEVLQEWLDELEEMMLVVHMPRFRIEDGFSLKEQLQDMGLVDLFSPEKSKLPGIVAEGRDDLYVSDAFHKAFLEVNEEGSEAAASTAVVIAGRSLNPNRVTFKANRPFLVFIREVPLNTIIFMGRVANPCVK
Description: (§1) A competition SPR method[32]−[34] was employed to examine the binding of compounds 1 and 6 to AT-III and PF4, and the results were compared to similar properties of UFH. First, biotinylated heparin was immobilized on a streptavidin-coated sensor chip, which was employed to establish equilibrium dissociation constants (KD) of AT-III and PF4 by employing different concentrations of these proteins as analytes (Figure S9). […] The determined KD values are in close agreement with literature reports.[34]−[36] Next, inhibition experiments were performed by premixing different concentrations of monovalent 1, tetravalent 6, and UFH with AT-III or PF4 followed by exposure to the sensor chip modified by heparin. […] The fact that tetravalent 6 does bind to PF4 supports the notion that it is a mimetic of heparin.
(§2) 6. Coagulation-related proteins SPR binding and competition studies
(§3) Coagulation-related proteins SPR binding studies: Human antithrombin-III (AT-III) was obtained from Haematologic technologies. […] Using Biacore T100 evaluation software, AT-III equilibrium dissociation constant (KD) was determined by fitting binding curves to two-state reaction model built in Biacore T100 evaluation software. For PF-4, steady-state affinity analysis was performed on the response curves of various PF-4 concentrations and KD value was calculated (Figure S9). […]

[3] = molecular target: T2, Factor-IIa (thrombin) (Homo sapiens, UniProt P00734); assay: AT-III mediated Factor-IIa inhibition assay (Biophen Anti-IIa, two-stage chromogenic); format: biochemical; settings: colorimetric, Biophen Anti-IIa kit
T2 construct: purchased BIOPHEN ANTI-IIa (2 Stages Heparin Assay) kit
Description: (§4) To validate the SPR results, AT-III-mediated anti-Factor-Xa and anti-Factor-IIa activities of the mimetics and UFH were measured using a colorimetric assay (Biophen Anti-Xa and Anti-IIa kits, two-stage chromogenic assays) (Figures 6B and S16–S17).
(§5) AT-III mediated Factor-IIa inhibition assays: Anti-Factor IIa activity of mimetics (1 and 6) and UFH was determined by BIOPHENÔ ANTI-IIa (2 Stages Heparin Assay) kit following manufacturer’s instructions. Human antithrombin (AT-III), purified human thrombin (Factor IIa) and thrombin specific chromogenic substrate [CS-01(38)] were reconstituted and prepared in specific buffers in accordance with kit protocol. […] After exactly 2 min, the reaction was stopped by introducing citric acid (2 wt.%, 80 µL), mixed and absorbance at 405 nm (POLARstar Optima, BMG Labtech) against the corresponding blank was measured. […] Measured blank value were subtracted from the absorbance measured for the corresponding test. The IC50 values (Figures S16) were calculated using dose-response equations [nonlinear regression, log(inhibitor) vs. response-variable slope (four parameters)] built in Prism software 9 (GraphPad Software, Inc.). […]
(§6) AT-III mediated Factor-Xa inhibition assays: Anti-Factor Xa activity of mimetics (1 and 6) and UFH was determined by BIOPHENÔ ANTI-Xa (2 Stages Heparin Assay) kit following manufacturer’s instructions. […]

[4] = molecular target: T3, platelet factor 4 (PF4) (Homo sapiens, UniProt P02776); assay: SPR competition assay: binding of PF4 to heparin chip; settings: 100 nM PF-4, 100 to 0.001 μg/mL
T3 construct: purchased Sino Biological, Inc
T3 sequence (P02776 32-101): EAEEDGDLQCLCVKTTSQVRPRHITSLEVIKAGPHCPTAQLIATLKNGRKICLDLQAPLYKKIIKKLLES
Description: as §1, §2, §3

[5] = tested on: Vero E6 cells; settings: 100 μg/mL; 24 h incubation
[6] = tested on: Factor-Xa; assay: AT-III mediated Factor-Xa inhibition assay (Biophen Anti-Xa, two-stage chromogenic); format: biochemical, bovine; settings: colorimetric, Biophen Anti-Xa kit
Description: as §4, §5, §6

[7] = molecular target: SARS-CoV-2 Wuhan RBD binding to Vero E6 cells (Severe acute respiratory syndrome coronavirus 2, UniProt P0DTC2); format: cell-based

Row | Structure (SMILES) | IC50 [1] [µM] | IC50, inhibition of AT-III binding to heparin surface [2] | IC50, AT-III-mediated inhibition of Factor-IIa [3] | IC50, inhibition of PF4 binding to heparin surface [4] | Cytotoxicity on Vero E6 cells [5] | IC50, AT-III-mediated inhibition of Factor-Xa [6] [µg/mL] | Inhibition of trimeric RBD binding to Vero E6 cells ([7]; 125 μg/mL (62.6 μM), RBDs from Wuhan and delta) | Inhibition of Wuhan RBD binding to Vero E6 cells ([7]; RBD pretreated with 10 and 125 μg/mL compound)
1 | CC(=O)NC1C(OC2C(C(=O)O)OC(OC3C(COS(=O)(=O)O)OC(OC4C(C(=O)O)OC(OC5C(COS(=O)(=O)O)OC(OC6C(C(=O)O)OC(OC7C(COS(=O)(=O)O)OC(OCCCCCN)C(NS(=O)(=O)O)C7O)C(OS(=O)(=O)O)C6O)C(NS(=O)(=O)O)C5O)C(OS(=O)(=O)O)C4O)C(NS(=O)(=O)O)C3O)C(O)C2O)OC(Cn2cc(CCC(=O)NCCCCCOC3OC(COS(=O)(=O)O)C(OC4OC(C(=O)O)C(OC5OC(COS(=O)(=O)O)C(OC6OC(C(=O)O)C(OC7OC(COS(=O)(=O)O)C(OC8OC(C(=O)O)C(O)C(O)C8O)C(O)C7NS(=O)(=O)O)C(O)C6OS(=O)(=O)O)C(O)C5NS(=O)(=O)O)C(O)C4OS(=O)(=O)O)C(O)C3NS(=O)(=O)O)nn2)C(O)C1O (stereo not drawn) [Compound 4] | > 10 |  |  |  |  |  |  | 
2 | NCCCCCOC1OC(COS(=O)(=O)O)C(OC2OC(C(=O)O)C(OC3OC(COS(=O)(=O)O)C(OC4OC(C(=O)O)C(OC5OC(COS(=O)(=O)O)C(OC6OC(C(=O)O)C(O)C(O)C6O)C(O)C5NS(=O)(=O)O)C(O)C4OS(=O)(=O)O)C(O)C3NS(=O)(=O)O)C(O)C2OS(=O)(=O)O)C(O)C1NS(=O)(=O)O (stereo not drawn) [Compound 1, GlcA-GlcNS6S-IdoA2S-GlcNS6S-IdoA2S-GlcNS6S] | > 50 | no inhibitory potential | failed to invoke any inhibition | no inhibition was observed | no toxicity | 70 | failed to invoke substantial inhibition | no inhibition was detected
